{"source": "patent US12064417B2", "about": "“Combination comprising a glucocorticoid and EDO-S101” (Purdue Pharmaceutical Products L.P., priority 2014, dated 2024)", "origin": "cited, not measured here", "test_system": "multiple myeloma cell lines", "settings": "in vitro, relative to bendamustin"}
{"smiles": "Cn1c(CCCCCCC(=O)NO)nc2cc(N(CCCl)CCCl)ccc21", "note": "[EDO-S101]", "values": [{"measurement": "activity greater than the activity shown by bendamustin", "result": "35-100"}]}
